Test [1] concerns histidine décarboxylase (HDC). Nature of the test: Enzymatic test: colorimetric assay (MBTH/DMAB) of histidine decarboxylase inhibition, initial reaction rates (Michaelis curves). The test is classed as biochemical. The conditions noted are these: for vitesse initiale: racemic cucurbitine. The source says: Ce test est basé sur l'action inhibitrice de la cucurbitine sur l'enzyme histidine décarboxylase (HDC) qui transforme l'histidine en histamine, par rapport à celle de la tritoqualine, qui est un inhibiteur connu de l'HDC (voir Carpi C., Maggi G.C. Bull. Soc Ital. Sper. 1968, 44 (6 543-4), et qui est utilisée en thérapeutique comme hypohistaminémiant sous le non de Hypostamine®.
L'activité inhibitrice sur l'HDC peut être aisément réalisée par un dosage colorimétrique sur la base de la réaction chimique suivante :
MBTH = 3-méthyl-2-benzothiazolinone hydrazone DMAB = 3-(diméthylamino)benzoic acid
En pratique, on observe que la formation de la coloration bleue est proportionnelle à la concentration en histidine consommée. On a ainsi pu définir des vitesses initiales de réaction et établir des courbes dites de Mickaelis comme décrit dans Fundamentals of Enzymology, 2nd Ed. Oxford Univ. Press, 1989.
La vitesse initiale est exprimée en variation d'absorbance par minute.
Les résultats obtenus avec diverses concentrations initiales d'histidine, à savoir à 132 nmol, 265 nmol, et 530 nmol, respectivement sans effecteur, avec tritoqualine comme inhibiteur d'HDC connu, et avec la cucurbitine sous forme racémique comme inhibiteur selon l'invention sont répertoriés au tableau II ci-après et font l'objet de la courbe de Mickaelis, objet de la figure 1. Tableau II

Test [2] concerns enzyme HDC. Nature of the test: RIA (radioimmunoassay) of the histamine produced by the HDC enzyme. The format is biochemical. To be noted: for % I (Inhibition) à 5 min / histamine libérée / % I (Inhibition) à 10 min: histidine 16.10^-3 molaire, effector 2.10^-3 molaire; for % I (Inhibition) à 5 min / % I (Inhibition) à 10 min: pH 6,3, 2000 µM; for histamine libérée: phosphate buffer pH 6,3. The source says:
On peut également mettre en évidence l'activité anti-histaminique de la cucurbitine par un dosage radioimmunologique (Radio Immuno Assay ou "RIA") de la manière suivante.
Ce dosage a lieu en dosant l'histamine directement produite sous l'action de l'enzyme HDC, par la méthode RIA, bien connue à l'homme de l'art, et notamment décrite dans la notice d'utilisation d'un kit de dosage dénommé HISTAMINE Radioimmunoassay kit (Cat. # 1302) commercialisé par la Société IMMUNOTECH (Marseille-France).
On dose au cours du temps La quantité d'histamine libérée (en nanomoles) pour une concentration de 16.10^-3 molaire d'histidine dans un tampon phosphate à pH 6,3, respectivement sans effecteur, avec la tritoqualine comme effecteur de comparaison et avec de la cucurbitine racémique de synthèse comme agent anti-histaminique selon l'invention. La tritoqualine et la cucurbitine sont utilisées à la concentration de 2.10^-3 molaire.
Les résultats obtenus exprimés en nanomoles […] libérée sont répertoriés au tableau III ci-après et font l'objet de la courbe de la figure 2 où l'on a indiqué en ordonnées le nombre de nanomoles d'histamine libérée et en abscisses le temps exprimé en minute. La courbe sans effecteur est tracée en trait continu, la courbe obtenue avec la tritoqualine est tracée en trait mixte et la courbe obtenue avec la cucurbitine est tracée en pointillés. TABLEAU III

Consider `NC1(C(=O)O)CCNC1` (racemic) [Cucurbitine, acide 3-amine-3-pyrrolidinecarboxylique], for which the vitesse initiale is 0,013 variation d'absorbance par minute in test [1] (Histidine 132 nmol), 0,0242 variation d'absorbance par minute in test [1] (Histidine 265 nmol) and 0,042 variation d'absorbance par minute in test [1] (Histidine 530 nmol). Moreover, the “inhibiteur d'HDC (comparison in words)” value in test [1] (compared with tritoqualine, Table II and figure 1) is “beaucoup plus puissant que la tritoqualine”. In addition, the “% I (Inhibition) à 5 min” value in test [2] (5 min) was found to be 55%. Further, the entries for the “histamine libérée” value in test [2] (5 min) and in test [2] (10 min) were 14,85 nanomoles and 38,29 nanomoles, respectively. In test [2] (10 min), the “% I (Inhibition) à 10 min” value came out at 73%. Besides, the “activité inhibitrice de la formation d'histamine (comparison in words)” value in test [2] (compared with tritoqualine, after a few minutes) is “nettement plus puissante que la tritoqualine”.

As for `CCOc1c(N)c2c(c(OCC)c1OCC)C(C1c3c(cc4c(c3OC)OCO4)CCN1C)OC2=O` (stereo not shown) [Tritoqualine, tritoqualine, reference compound], the vitesse initiale in test [1] (Histidine 132 nmol) is given as 0,021 variation d'absorbance par minute; in test [1] (Histidine 265 nmol), 0,0374 variation d'absorbance par minute; in test [1] (Histidine 530 nmol), 0,0604 variation d'absorbance par minute. Further, in test [2] (5 min), the “% I (Inhibition) à 5 min” value amounted to 49%. Further, the “histamine libérée” value in test [2] (5 min) is given as 16,48 nanomoles; in test [2] (10 min), 49,27 nanomoles. For the same compound, in test [2] (10 min), the “% I (Inhibition) à 10 min” value worked out at 65%.

Values taken from patent EP0575454B1, “USE OF CUCURBITINE FOR THE PREPARATION OF A COSMETIC OR PHARMACEUTICAL, PARTICULARLY DERMATOLOGICAL, ANTIALLERGIC COMPOSITION AND METHOD INVOLVING APPLICATION THEREOF” (PARFUMS CHRISTIAN DIOR, priority 1991, dated 1992).
